Several values for one entry are separate records, joined by “and”; a condition that tells them apart may be missing. Identical values can stand only once.
Legend:
POLCO = experiment: Post-emergence action at 320 g/ha against POLCO; assay type: in vivo, Fallopia convolvulus (Polygonum convolvulus); details: visual rating about 3 weeks after treatment vs untreated controls; for pest or weed control at 320 g/ha: Fallopia convolvulus, 504 h
In short: (§1)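 Visual % activity vs untreated controls (0% = like control, 100% = plants dead), scored ~3 wk after treatment. Plants were grown in sandy loam in a greenhouse and sprayed on green parts at the one-leaf stage (2–3 wk post-sowing). Spray: WP or EC in water, 0.5% additive, 600 l/ha.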

AMARE [1] = experiment: Post-emergence action against AMARE, 1.28 kg/ha; assay type: in vivo, Amaranthus retroflexus; details: dosage 1280 g/ha, visual rating about 3 weeks after treatment vs untreated controls (100% = plants died)
In short: (§2)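 Greenhouse pot test, sandy loam; weeds sprayed post-emergence at one-leaf stage (2–3 weeks after sowing) with WP or EC formulation plus 0.5% additive, 600 l/ha water. Visual rating after about 3 weeks versus untreated controls, 100% = plants dead, 0% = like control.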

MATIN = experiment: Pre-emergence action at 320 g/ha against MATIN; assay type: in vivo, Tripleurospermum inodorum (Matricaria inodora); details: visual scoring after about 3 weeks vs untreated controls; for pest or weed control at 320 g/ha: Tripleurospermum inodorum, 504 h
In short: (§3)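 Weed and crop seeds sown in pots and covered with soil; WP or EC formulations sprayed pre-emergence onto the soil surface at 320 g/ha with 0.5% additive in 600 l/ha water. Kept in greenhouse; after about 3 weeks activity scored visually as % versus untreated controls (100% = plants dead, 0% = as control).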

AMARE [2] = experiment: Post-emergence action at 320 g/ha against AMARE; assay type: in vivo, Amaranthus retroflexus; details: visual rating about 3 weeks after treatment vs untreated controls; for pest or weed control at 320 g/ha: Amaranthus retroflexus, 504 h
In short: as §1

SETVI = experiment: Post-emergence action against SETVI, 1.28 kg/ha; assay type: in vivo, Setaria viridis; details: dosage 1280 g/ha, visual rating about 3 weeks after treatment vs untreated controls
In short: as §2

VIOTR = experiment: Pre-emergence action at 320 g/ha against VIOTR; assay type: in vivo, Viola tricolor; details: dosage 320 g/ha; for pest or weed control at 320 g/ha: Viola tricolor, 504 h
In short: as §3

ECHCG [3] = experiment: Post-emergence action at 320 g/ha against ECHCG; assay type: in vivo, Echinochloa crus-galli; details: dosage 320 g/ha, visual rating about 3 weeks after treatment vs untreated controls (100% = plants died)
In short: as §1

ABUTH [4] = experiment: Post-emergence action at 320 g/ha against ABUTH; assay type: in vivo, Abutilon theophrasti; details: visual rating about 3 weeks after treatment vs untreated controls
In short: as §1

ECHGC = experiment: Pre-emergence action at 320 g/ha against ECHGC; assay type: in vivo, Echinochloa crus-galli; details: visual scoring after about 3 weeks vs untreated controls
In short: as §3

DIGSA = experiment: Post-emergence action at 320 g/ha against DIGSA; assay type: in vivo, Digitaria sanguinalis; details: dosage 320 g/ha, visual rating about 3 weeks after treatment vs untreated controls (100% = plants died); for pest or weed control at 320 g/ha: Digitaria sanguinalis, 504 h
In short: as §1

VERPE = experiment: Pre-emergence action at 320 g/ha against VERPE; assay type: in vivo, Veronica persica; details: visual scoring after about 3 weeks vs untreated controls; for pest or weed control at 320 g/ha: Veronica persica, 504 h
In short: as §3

STEME = experiment: Post-emergence action against STEME, 1.28 kg/ha; assay type: in vivo, Stellaria media; details: dosage 1280 g/ha, visual rating about 3 weeks after treatment vs untreated controls (100% = plants died)
In short: as §2

ECHCG [5] = experiment: Post-emergence action against ECHCG, 1.28 kg/ha; assay type: in vivo, Echinochloa crus-galli; details: dosage 1280 g/ha, visual rating about 3 weeks after treatment vs untreated controls; for pest or weed control at 1280 g/ha: Echinochloa crus-galli, 504 h
In short: as §2

PHBPU = experiment: Post-emergence action at 320 g/ha against PHBPU; assay type: in vivo; details: visual rating about 3 weeks after treatment vs untreated controls
In short: as §1

ABUTH [6] = experiment: Pre-emergence action against ABUTH, 1280 g/ha; assay type: in vivo, Abutilon theophrasti; details: scored visually after about 3 weeks vs untreated controls (100% = plants have died)
In short: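 Mono- and dicot weed seeds sown in sandy loam were treated on the covering soil surface with WP or EC formulations plus 0.5% additive at 600 L water/ha. Pots stayed in a greenhouse; damage was scored visually after ~3 weeks as percent versus untreated controls (100% = dead).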

LOLRI = experiment: Post-emergence action against LOLRI, 1.28 kg/ha; assay type: in vivo, Lolium rigidum; details: dosage 1280 g/ha, visual rating about 3 weeks after treatment vs untreated controls
In short: as §2

Row | Compound | Post-emergence action against POLCO in % (POLCO) [%] | Post-emergence action against AMARE (AMARE [1]) | Pre-emergence action against MATIN in % (MATIN) [%] | Post-emergence action against AMARE in % (AMARE [2]) [%] | Post-emergence action against SETVI (SETVI) | Pre-emergence action against VIOTR in % (VIOTR) [%] | Post-emergence action at 320 g/ha against ECHCG in % (ECHCG [3]) [%] | Post-emergence action against ABUTH in % (ABUTH [4]) [%] | Pre-emergence action against ECHGC in % (ECHGC) [%] | Post-emergence action at 320 g/ha against DIGSA in % (DIGSA) [%] | Pre-emergence action against VERPE in % (VERPE) [%] | Post-emergence action against STEME (STEME) [%] | Post-emergence action against PHBPU in % (PHBPU) | pest or weed control at 320 g/ha (POLCO) [%] | pest or weed control at 320 g/ha (MATIN) [%] | pest or weed control at 320 g/ha (AMARE [2]) [%] | pest or weed control at 320 g/ha (VIOTR) [%] | pest or weed control at 320 g/ha (DIGSA) [%] | pest or weed control at 320 g/ha (VERPE) [%] | pest or weed control at 1280 g/ha (ECHCG [5]) [%] | also measured
1 | CS(=O)(=O)NC(=O)COc1nn(-c2ccccc2F)c(-c2ccc(F)nc2)c1Br [Example X-004] | 80 | 100% | 90 | 90 | 90% | 100 | 90 | 80 | 90 | 90 | 100 | 100 | 90% |  |  |  |  |  |  |  | Post-emergence action against ECHCG (ECHCG [5]): 100%
2 | O=C(O)COc1nn(-c2ccccc2F)c(-c2cncnc2)c1Br [VI-007, {[4-Bromo-1-(2-fluorophenyl)-5-(pyrimidin-5-yl)-1H-pyrazol-3-yl]oxy}acetic Acid] |  |  |  |  | 90% |  | 80 | 90 |  |  |  | 100 | 90% | 80 | 100 | 80 | 100 | 80 | 100 | 100 | Pre-emergence action against ABUTH (ABUTH [6]): 90%
3 | O=C(O)COc1nn(-c2ccccc2F)c(-c2ccc(F)nc2)c1Br [VII-003, {[4-Bromo-1-(2-fluorophenyl)-5-(6-fluoropyridin-3-yl)-1H-pyrazol-3-yl]oxy}acetic acid] |  | 100% |  |  | 90% |  | 90 | 80 | 100 |  |  | 100 | 90% | 90 | 90 | 90 | 100 | 90 | 100 | 90 | Post-emergence action against LOLRI (LOLRI): 100%
4 | CCOC(=O)COc1nn(-c2ccccc2F)c(-c2ccc(F)nc2)c1C(F)(F)F [VII-010] | 80 |  | 100 | 90 | 90% | 100 | 90 | 80 | 100 | 90 | 100 | 100 | 90% |  |  |  |  |  |  |  | Pre-emergence action against ABUTH (ABUTH [6]): 100%; Post-emergence action against ECHCG (ECHCG [5]): 100%
5 | CCOC(=O)COc1nn(-c2ccccc2F)c(-c2ccc(F)nc2)c1Br [VII-012, Ethyl {[4-bromo-1-(2-fluorophenyl)-5-(6-fluoropyridin-3-yl)-1H-pyrazol-3-yl]oxy}acetate] |  | 100% and 90% |  |  | 100% and 90% |  | 90 | 80 | 100 |  |  | 100 | 90% and 80% | 90 | 90 | 90 | 100 | 80 | 100 | 100 | Post-emergence action against LOLRI (LOLRI): 100%

— US12180187B2, “1-phenyl-5-azinylpyrazolyl-3-oxyalkyl acids and their use for controlling unwanted plant growth” (BAYER AKTIENGESELLSCHAFT, priority 2019, dated 2024)
